# Assay results published in PubChem BioAssay (NCI).
# Where “and” joins values, the source holds several entries; their conditions need not be identical. Equal entries are not always repeated.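 48-hour exposure; five concentrations; linearly interpolated endpoints. GI50 marks 50% less growth. Definition used: TGI = concentration required for complete inhibition of growth.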
# Columns and labels:
# Experiment in all cases: NCI anticancer screen, dose series, 48 h
# KM12 colon = test system: KM12 colon
# T-47D breast = test system: T-47D breast
# A549 NSCLC = test system: A549 NSCLC
# SW-620 colon = test system: SW-620 colon
# M14 melanoma = test system: M14 melanoma
# HT29 colon = test system: HT29 colon
# SK-MEL-2 melanoma = test system: SK-MEL-2 melanoma
# NCI/ADR-RES ovarian = test system: NCI/ADR-RES ovarian
# OVCAR-5 ovarian = test system: OVCAR-5 ovarian
# OVCAR-3 ovarian = test system: OVCAR-3 ovarian
Compound,GI50 (KM12 colon),TGI (KM12 colon),GI50 (T-47D breast),TGI (T-47D breast),GI50 (A549 NSCLC) [µM],TGI (A549 NSCLC),GI50 (SW-620 colon),TGI (SW-620 colon),GI50 (M14 melanoma),TGI (M14 melanoma),GI50 (HT29 colon),TGI (HT29 colon),GI50 (SK-MEL-2 melanoma),TGI (SK-MEL-2 melanoma),GI50 (NCI/ADR-RES ovarian),TGI (NCI/ADR-RES ovarian),GI50 (OVCAR-5 ovarian) [µM],TGI (OVCAR-5 ovarian),GI50 (OVCAR-3 ovarian),TGI (OVCAR-3 ovarian)
CN(Cc1cc(Br)cc(Br)c1O)Cc1cc(Br)cc(Br)c1O,3.81 µM,16.4 µM,2.27 µM,23.6 µM,2.19,15.4 µM,2.33 µM,16.9 µM,1.69 µM,15.6 µM,6.23 µM,19.9 µM,2.87 µM,11.8 µM,1.83 µM,12.6 µM,6.13,21.9 µM,1.42 µM,11.2 µM
Clc1ccc2c(c1)N(c1ncnc3ccc(-c4cnc5[nH]ccc5c4)cc13)CC2,1.24 µM,18.6 µM,0.501 µM,6.48 µM,2.61,17.7 µM,1.38 µM,14.7 µM,0.992 µM,11.9 µM,1.03 µM,2.66 µM,2.88 µM,22.8 µM,1.99 µM,69 µM,0.898,22 µM,1.67 µM,20.4 µM
O=[N+]([O-])c1ccc(Sc2ncnc3nc[nH]c23)c2nonc12,15.1 µM,> 100 µM,2.09 µM,> 100 µM,29.6,> 100 µM,1.63 µM,3.44 µM,0.94 µM,13.5 µM,3.88 µM,20.6 µM,4.36 µM,15.9 µM,5.16 µM,28.9 µM,10.3,22.6 µM,0.714 µM,16.6 µM
O=CNc1ncn[nH]1,,> 100 µM,,> 100 µM,,> 100 µM,,> 100 µM,,> 100 µM,,> 100 µM,,> 100 µM,,> 100 µM,,> 100 µM,,> 100 µM
CCOC(=O)n1cc(C2=C(c3cn(C)c4ccccc34)COC2=O)c2ccccc21,0.0471 µM,> 100 µM,0.338 µM,> 100 µM,0.166,> 100 µM,0.0724 µM,> 100 µM,0.0478 µM,> 100 µM,0.0464 µM,,0.5 µM,> 86.1 µM,0.0531 µM,,0.462,> 100 µM,0.0391 µM,0.277 µM
CC1=CC(=C(c2ccc(N)cc2)c2ccc(N)cc2)C=CC1=N,0.557 µM and 2.72 µM,6.54 µM and 7.11 µM and 10.1 µM,0.27 µM and 1.31 µM,2.73 µM and 11.8 µM and 8.81 µM,2.68,20.1 µM and 50.6 µM and 15.9 µM,0.668 µM and 3.25 µM,11.8 µM and 38.8 µM and 16 µM,0.867 µM and 3.79 µM,5.25 µM and 17.7 µM and 15.3 µM,0.558 µM and 3.08 µM,10.7 µM and 29.9 µM and 11.3 µM,2.32 µM and 2.71 µM,7.73 µM and 12.2 µM and 5.84 µM,9.31 µM and 25.7 µM,46.6 µM and 61.9 µM and > 100 µM,3.42,14.4 µM and > 71.9 µM and > 100 µM,1.41 µM and 2.14 µM,5.49 µM and 15.1 µM and 5.5 µM
